Measurements taken from ChEMBL document CHEMBL4765492, “Discovery of GLPG2451, a Novel Once Daily Potentiator for the Treatment of Cystic Fibrosis” (J Med Chem, 2021).
pEC50: −log10 of the molar value. Converted amounts (≈) assume the structure as drawn. The source made the active and inactive calls. The rule behind the calls is not given here.

How the values were obtained:
[1] = Permeability of compound across apical to basolateral membrane in MDCK cells; type: ADME, cell-based, Canis lupus familiaris; settings: dog, read-out: permeability
[2] = system: Cystic fibrosis transmembrane conductance regulator (Homo sapiens), P13569 [F508del,G551D]; test: Potentiation of CFTR F508del/G551D mutant in human HBE cells assessed as increase in channel current at 10 nM to 1000 nM incubated for 20 mins by Ussing chamber assay; type: cell-based; settings: Primary bronchial epithelial cell, filed as activator
[3] = system: Cystic fibrosis transmembrane conductance regulator (Homo sapiens), P13569 [G551D]; test: Potentiation of CFTR G551D mutant (unknown origin) expressed in human HEK293 cells co-expressing YFP incubated for 10 mins by halide potentiator assay relative to control; type: cell-based; settings: filed as activator
[4] = Permeability efflux ratio in MDCK cells; type: ADME, cell-based, Canis lupus familiaris; settings: dog
[5] = Unbound intrinsic clearance in rat liver microsomes; type: ADME, Microsome
[6] = target: T1, Cystic fibrosis transmembrane conductance regulator (Homo sapiens, UniProt P13569, F508DEL); test: Potentiation of CFTR F508del mutant (unknown origin) expressed in human CFBE41o- cells co-expressing YFP incubated for 10 mins by halide potentiator assay; type: cell-based
[7] = AUC in rat at 5 mg/kg, po; type: ADME, organism-based; design: dose 5 mg/kg; settings: in vivo
[8] = Unbound intrinsic clearance in rat hepatocytes; type: ADME, cell-based, Hepatocyte
[9] = Half life in Sprague-Dawley rat at 1 mg/kg, iv; type: ADME, organism-based; settings: in vivo
[10] = Unbound intrinsic clearance in human liver microsomes; type: ADME, Microsome
[11] = Clearance in Sprague-Dawley rat at 1 mg/kg, iv; type: ADME, organism-based; settings: in vivo
[12] = Unbound clearance in Sprague-Dawley rat at 1 mg/kg, iv; type: ADME, organism-based; settings: in vivo
[13] = Volume of distribution at steady state in Sprague-Dawley rat at 1 mg/kg, iv; type: ADME, organism-based; settings: in vivo, read-out: Vdss
[14] = target: Cystic fibrosis transmembrane conductance regulator (Homo sapiens, UniProt P13569, G551D); test: Potentiation of CFTR G551D mutant (unknown origin) expressed in human HEK293 cells co-expressing YFP incubated for 10 mins by halide potentiator assay; type: cell-based
[15] = Oral bioavailability in rat at 5 mg/kg; type: ADME, organism-based; settings: in vivo
[16] = Clearance in rat at 1 mg/kg, iv relative to hepatic blood flow; type: ADME, organism-based; settings: in vivo
[17] = Kinetic aqueous solubility of the compound at pH 7.4; type: physicochemical; settings: buffer, read-out: Kinetic_solubility
[18] = Clearance in Cynomolgus monkey at 1 mg/kg, iv; type: ADME, organism-based, Macaca fascicularis; settings: in vivo
[19] = Half life in Cynomolgus monkey at 1 mg/kg, iv; type: ADME, organism-based, Macaca fascicularis; settings: in vivo
[20] = target: Voltage-gated inwardly rectifying potassium channel KCNH2 (Homo sapiens, UniProt Q12809); test: Inhibition of human ERG by manual patch clamp assay
[21] = Volume of distribution at steady state in Cynomolgus monkey at 1 mg/kg, iv; type: ADME, organism-based, Macaca fascicularis; settings: in vivo, read-out: Vdss
[22] = target: T1, Cystic fibrosis transmembrane conductance regulator; test: Potentiation of CFTR F508del mutant in human HBE cells by trans-epithelial clamp circuit assay; type: cell-based, Primary bronchial epithelial cell
[23] = Unbound intrinsic clearance in dog liver microsomes; type: ADME, Canis lupus familiaris, Microsome
[24] = Unbound clearance in Beagle dog at 1 mg/kg, iv; type: ADME, organism-based, Canis lupus familiaris; settings: in vivo
[25] = target: T2, Nuclear receptor subfamily 1 group I member 2 (Homo sapiens, UniProt O75469); test: Activation of PXR (unknown origin) at 10 uM by CYP450 induction assay relative to rifampicin; type: ADME
T2 sequence (O75469 whole entry): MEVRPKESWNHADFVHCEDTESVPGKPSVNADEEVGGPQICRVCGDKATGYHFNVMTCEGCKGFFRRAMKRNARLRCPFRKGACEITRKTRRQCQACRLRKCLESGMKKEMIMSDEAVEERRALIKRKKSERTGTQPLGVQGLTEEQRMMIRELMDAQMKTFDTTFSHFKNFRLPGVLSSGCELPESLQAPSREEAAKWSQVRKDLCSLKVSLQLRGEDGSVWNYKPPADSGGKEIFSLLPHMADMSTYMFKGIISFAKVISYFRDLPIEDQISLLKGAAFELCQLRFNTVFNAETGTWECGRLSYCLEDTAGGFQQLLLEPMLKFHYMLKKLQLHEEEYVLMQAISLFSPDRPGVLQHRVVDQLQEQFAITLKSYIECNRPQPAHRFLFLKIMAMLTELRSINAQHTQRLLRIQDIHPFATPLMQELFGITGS

[26] = target: Cytochrome P450 2C19 (Homo sapiens, UniProt P33261); test: Inhibition of CYP2C19 (unknown origin); type: ADME
[27] = target: T3, Cytochrome P450 1A2 (Homo sapiens, UniProt P05177); test: Inhibition of CYP1A2 (unknown origin); type: ADME
T3 sequence (P05177 whole entry): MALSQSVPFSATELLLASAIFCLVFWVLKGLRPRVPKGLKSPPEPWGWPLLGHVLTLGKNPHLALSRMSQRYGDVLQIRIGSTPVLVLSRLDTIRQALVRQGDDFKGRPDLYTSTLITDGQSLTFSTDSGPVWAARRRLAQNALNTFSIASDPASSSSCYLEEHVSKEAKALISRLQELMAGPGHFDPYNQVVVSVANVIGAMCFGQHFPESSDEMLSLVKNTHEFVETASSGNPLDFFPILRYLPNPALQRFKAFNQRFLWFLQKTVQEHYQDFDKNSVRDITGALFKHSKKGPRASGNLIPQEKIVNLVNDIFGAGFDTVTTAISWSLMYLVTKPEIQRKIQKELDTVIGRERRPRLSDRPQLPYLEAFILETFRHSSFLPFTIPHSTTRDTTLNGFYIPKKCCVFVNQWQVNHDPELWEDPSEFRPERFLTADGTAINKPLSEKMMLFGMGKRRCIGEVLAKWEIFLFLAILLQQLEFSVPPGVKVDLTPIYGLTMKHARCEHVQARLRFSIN

[28] = Oral bioavailability in Beagle dog at 1 mg/kg; type: ADME, organism-based, Canis lupus familiaris; settings: in vivo
[29] = Unbound intrinsic clearance in monkey liver microsomes; type: ADME, Macaca mulatta, Microsome; settings: rhesus monkey
[30] = Half life in Beagle dog at 1 mg/kg, iv; type: ADME, organism-based, Canis lupus familiaris; settings: in vivo
[31] = Oral bioavailability Cynomolgus monkey at 1 mg/kg, […]; type: ADME, organism-based, Macaca fascicularis; settings: in vivo
[32] = Clearance in Beagle dog at 1 mg/kg, iv; type: ADME, organism-based, Canis lupus familiaris; settings: in vivo
[33] = Toxicity in human assessed as drug tolerability during phase I study
[34] = target: Cytochrome P450 2C9 (Homo sapiens, UniProt P11712); test: Inhibition of CYP2C9 (unknown origin); type: ADME
[35] = target: Cytochrome P450 3A4 (Homo sapiens, UniProt P08684); test: Inhibition of CYP3A4 (unknown origin); type: ADME
[36] = Unbound clearance in Cynomolgus monkey at 1 mg/kg, iv; type: ADME, organism-based, Macaca fascicularis; settings: in vivo
[37] = Volume of distribution at steady state in Beagle dog at 1 mg/kg, iv; type: ADME, organism-based, Canis lupus familiaris; settings: in vivo, read-out: Vdss
[38] = target: Cytochrome P450 2D6 (Homo sapiens, UniProt P10635); test: Inhibition of CYP2D6 (unknown origin); type: ADME
[39] = Thermodynamic solubility of the compound in the FASSIF medium; type: physicochemical; settings: read-out: Therm_solubility

T1 sequence (P13569 as listed by the source): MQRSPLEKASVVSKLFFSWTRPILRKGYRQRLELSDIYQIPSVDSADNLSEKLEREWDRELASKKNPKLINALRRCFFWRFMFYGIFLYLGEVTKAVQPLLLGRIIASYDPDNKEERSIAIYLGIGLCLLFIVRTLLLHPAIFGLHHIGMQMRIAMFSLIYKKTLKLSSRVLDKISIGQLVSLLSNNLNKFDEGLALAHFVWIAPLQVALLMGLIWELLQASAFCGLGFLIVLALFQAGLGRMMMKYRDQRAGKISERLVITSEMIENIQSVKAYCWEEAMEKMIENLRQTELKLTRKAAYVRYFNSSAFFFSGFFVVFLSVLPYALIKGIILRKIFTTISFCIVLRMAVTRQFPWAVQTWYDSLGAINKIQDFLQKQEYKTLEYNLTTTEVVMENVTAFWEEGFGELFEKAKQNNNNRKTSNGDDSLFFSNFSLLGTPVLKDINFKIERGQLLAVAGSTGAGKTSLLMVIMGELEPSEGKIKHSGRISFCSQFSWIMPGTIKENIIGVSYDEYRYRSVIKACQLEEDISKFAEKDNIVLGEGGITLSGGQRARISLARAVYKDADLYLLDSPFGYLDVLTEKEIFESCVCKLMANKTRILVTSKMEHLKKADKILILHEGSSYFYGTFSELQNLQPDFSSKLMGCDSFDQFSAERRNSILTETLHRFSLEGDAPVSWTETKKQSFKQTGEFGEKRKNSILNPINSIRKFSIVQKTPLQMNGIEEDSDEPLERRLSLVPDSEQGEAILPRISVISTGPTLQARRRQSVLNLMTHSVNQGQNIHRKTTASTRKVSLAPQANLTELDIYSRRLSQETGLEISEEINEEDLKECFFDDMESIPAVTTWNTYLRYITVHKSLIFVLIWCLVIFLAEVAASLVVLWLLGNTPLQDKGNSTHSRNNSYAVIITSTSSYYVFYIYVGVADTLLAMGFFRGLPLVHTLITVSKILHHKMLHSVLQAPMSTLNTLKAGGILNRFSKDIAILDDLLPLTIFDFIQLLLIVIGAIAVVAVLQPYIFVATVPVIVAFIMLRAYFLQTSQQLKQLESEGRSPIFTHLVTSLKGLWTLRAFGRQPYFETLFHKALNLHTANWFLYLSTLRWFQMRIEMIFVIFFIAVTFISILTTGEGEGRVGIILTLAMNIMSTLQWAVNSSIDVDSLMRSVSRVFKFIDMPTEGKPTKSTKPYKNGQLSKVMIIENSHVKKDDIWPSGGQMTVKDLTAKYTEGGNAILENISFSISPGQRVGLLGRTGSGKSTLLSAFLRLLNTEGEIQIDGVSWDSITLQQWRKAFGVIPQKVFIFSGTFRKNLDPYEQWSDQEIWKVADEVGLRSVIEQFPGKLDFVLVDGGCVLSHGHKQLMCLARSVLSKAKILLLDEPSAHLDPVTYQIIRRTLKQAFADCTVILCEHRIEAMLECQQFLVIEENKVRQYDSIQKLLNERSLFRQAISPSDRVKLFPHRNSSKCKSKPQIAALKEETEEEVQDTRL
Cystic fibrosis transmembrane conductance regulator (Homo sapiens), P13569 [G551D], sequence (P13569 whole entry G551D): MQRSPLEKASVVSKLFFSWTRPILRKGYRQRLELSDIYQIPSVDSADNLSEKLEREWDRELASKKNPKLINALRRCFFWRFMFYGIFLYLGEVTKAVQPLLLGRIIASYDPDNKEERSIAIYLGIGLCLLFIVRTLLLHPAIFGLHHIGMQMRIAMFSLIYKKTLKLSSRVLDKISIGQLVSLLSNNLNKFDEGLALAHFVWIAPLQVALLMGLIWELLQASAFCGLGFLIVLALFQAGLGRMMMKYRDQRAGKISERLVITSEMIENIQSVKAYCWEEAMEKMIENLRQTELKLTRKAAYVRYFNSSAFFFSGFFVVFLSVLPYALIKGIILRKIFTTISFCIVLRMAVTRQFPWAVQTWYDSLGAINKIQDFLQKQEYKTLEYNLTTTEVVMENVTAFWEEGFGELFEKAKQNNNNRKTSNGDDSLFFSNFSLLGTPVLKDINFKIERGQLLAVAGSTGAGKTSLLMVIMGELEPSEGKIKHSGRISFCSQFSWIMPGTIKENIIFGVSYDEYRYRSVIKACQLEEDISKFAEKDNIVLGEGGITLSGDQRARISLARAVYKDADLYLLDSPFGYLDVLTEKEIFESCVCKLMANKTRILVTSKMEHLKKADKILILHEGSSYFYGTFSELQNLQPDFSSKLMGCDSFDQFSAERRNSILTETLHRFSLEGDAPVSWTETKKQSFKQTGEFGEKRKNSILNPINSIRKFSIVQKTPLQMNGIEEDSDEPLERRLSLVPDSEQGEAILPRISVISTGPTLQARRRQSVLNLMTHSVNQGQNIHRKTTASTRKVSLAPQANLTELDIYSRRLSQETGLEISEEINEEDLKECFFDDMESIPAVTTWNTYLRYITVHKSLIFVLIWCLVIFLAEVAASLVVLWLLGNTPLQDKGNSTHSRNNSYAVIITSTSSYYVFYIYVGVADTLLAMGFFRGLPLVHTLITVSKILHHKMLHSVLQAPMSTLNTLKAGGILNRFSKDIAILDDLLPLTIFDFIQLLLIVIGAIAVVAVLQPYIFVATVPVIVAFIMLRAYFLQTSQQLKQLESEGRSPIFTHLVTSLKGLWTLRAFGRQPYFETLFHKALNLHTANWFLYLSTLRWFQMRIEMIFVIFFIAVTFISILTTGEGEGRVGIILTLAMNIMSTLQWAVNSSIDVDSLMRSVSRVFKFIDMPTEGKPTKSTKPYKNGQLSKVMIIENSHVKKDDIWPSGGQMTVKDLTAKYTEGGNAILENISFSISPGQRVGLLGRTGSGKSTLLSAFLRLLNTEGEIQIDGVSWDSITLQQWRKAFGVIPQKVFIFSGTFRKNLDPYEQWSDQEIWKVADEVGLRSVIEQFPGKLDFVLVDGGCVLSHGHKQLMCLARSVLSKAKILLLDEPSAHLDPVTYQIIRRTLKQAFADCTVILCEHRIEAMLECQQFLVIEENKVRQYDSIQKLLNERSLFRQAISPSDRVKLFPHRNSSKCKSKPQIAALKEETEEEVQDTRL
Cytochrome P450 2C19, sequence (P33261 whole entry): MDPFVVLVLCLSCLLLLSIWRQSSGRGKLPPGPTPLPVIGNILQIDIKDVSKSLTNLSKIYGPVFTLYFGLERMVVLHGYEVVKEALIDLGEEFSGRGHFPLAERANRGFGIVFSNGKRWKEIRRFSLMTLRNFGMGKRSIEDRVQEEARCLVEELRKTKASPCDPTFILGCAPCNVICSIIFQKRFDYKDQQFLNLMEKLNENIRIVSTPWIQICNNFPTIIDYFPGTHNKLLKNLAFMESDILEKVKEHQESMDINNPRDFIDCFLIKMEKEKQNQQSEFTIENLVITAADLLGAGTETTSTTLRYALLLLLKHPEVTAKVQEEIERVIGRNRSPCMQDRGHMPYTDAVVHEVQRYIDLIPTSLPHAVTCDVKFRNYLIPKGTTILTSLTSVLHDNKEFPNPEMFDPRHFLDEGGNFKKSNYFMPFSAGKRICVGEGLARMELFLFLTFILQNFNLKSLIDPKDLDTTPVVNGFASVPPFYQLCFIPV
Cytochrome P450 2C9, sequence (P11712 whole entry): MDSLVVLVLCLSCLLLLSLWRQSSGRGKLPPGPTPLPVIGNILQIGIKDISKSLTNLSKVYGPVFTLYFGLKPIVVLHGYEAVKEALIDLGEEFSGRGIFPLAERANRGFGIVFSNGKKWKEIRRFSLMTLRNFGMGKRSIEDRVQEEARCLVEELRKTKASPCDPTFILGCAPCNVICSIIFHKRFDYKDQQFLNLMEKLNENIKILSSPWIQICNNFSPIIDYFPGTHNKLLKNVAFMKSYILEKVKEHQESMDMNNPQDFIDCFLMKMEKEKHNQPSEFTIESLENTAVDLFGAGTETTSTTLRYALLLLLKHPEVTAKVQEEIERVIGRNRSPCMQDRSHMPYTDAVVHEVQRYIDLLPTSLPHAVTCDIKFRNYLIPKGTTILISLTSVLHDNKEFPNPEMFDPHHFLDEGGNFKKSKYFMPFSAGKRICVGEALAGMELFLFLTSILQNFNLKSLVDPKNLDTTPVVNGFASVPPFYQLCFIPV
Cytochrome P450 3A4, sequence (P08684 whole entry): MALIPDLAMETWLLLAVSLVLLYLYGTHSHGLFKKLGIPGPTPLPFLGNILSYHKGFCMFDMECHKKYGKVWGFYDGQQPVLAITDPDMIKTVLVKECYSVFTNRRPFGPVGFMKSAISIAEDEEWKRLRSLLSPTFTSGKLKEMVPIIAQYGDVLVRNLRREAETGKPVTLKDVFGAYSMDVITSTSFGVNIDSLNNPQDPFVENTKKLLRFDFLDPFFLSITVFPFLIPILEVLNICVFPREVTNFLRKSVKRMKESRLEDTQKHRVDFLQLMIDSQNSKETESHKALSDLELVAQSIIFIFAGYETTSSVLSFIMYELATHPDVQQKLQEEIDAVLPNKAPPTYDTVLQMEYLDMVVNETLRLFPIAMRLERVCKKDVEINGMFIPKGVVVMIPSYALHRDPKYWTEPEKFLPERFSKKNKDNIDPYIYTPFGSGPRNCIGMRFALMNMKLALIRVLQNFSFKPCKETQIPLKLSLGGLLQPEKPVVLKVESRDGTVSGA
Cytochrome P450 2D6, sequence (P10635 whole entry): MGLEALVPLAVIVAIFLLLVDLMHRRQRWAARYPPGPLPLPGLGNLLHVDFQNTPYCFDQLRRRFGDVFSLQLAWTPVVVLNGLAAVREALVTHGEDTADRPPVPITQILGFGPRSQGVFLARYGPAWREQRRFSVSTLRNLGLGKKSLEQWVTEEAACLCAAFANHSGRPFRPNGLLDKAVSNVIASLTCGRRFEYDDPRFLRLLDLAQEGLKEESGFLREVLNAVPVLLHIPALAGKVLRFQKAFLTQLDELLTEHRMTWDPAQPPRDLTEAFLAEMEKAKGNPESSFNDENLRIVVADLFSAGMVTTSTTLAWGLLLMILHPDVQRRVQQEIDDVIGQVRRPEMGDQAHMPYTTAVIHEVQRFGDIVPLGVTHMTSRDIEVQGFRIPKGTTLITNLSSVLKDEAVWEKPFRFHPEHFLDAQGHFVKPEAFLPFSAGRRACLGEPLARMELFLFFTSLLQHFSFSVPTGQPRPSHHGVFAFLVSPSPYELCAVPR

Q: With `CN(Cc1ccccc1)S(=O)(=O)c1cc(C(N)=O)c(NC(=O)c2ccn[nH]2)s1` as the molecule, how does the Papp A→B [1] read?
A: Its Papp A→B is 0.65 ×10⁻⁶ cm/s.

Q: What about the Activity [2] of the same molecule?
A: The Activity was “Active”.

Q: What about the Activity [3] of the same molecule?
A: Its Activity is 115%.

Q: What about the efflux ratio [4] of the same molecule?
A: Its efflux ratio is 47.

Q: And the CL free [5]?
A: The CL free was 1880 mL/min/kg.

Q: What about the pEC50 [6] of the same molecule?
A: Its pEC50 is 7.77.

Q: For `NC(=O)c1cc(S(=O)(=O)c2ccc(F)cc2)sc1NC(=O)C1(O)CC1`, which Papp A→B [1] is on record?
A: Its Papp A→B is 1 ×10⁻⁶ cm/s.

Q: What about the AUC [7] of the same molecule?
A: The AUC was 500 ng·h/mL.

Q: And the efflux ratio [4]?
A: Its efflux ratio is 137.

Q: What about the CL free [5] of the same molecule?
A: Its CL free is 76.7 mL/min/kg.

Q: And the pEC50 [6]?
A: The pEC50 was 7.10.

Q: What about the CL free [8] of the same molecule?
A: Its CL free is 107 mL/min/kg.

Q: For `Nc1cc(S(=O)(=O)N2CCC(OC(F)(F)F)CC2)cnc1C(=O)NCC(O)C(F)(F)F` (configuration not stated), which half-life [9] is on record?
A: The half-life was 1.3 h.

Q: What about the CL free [10] of the same molecule?
A: The CL free was 130 mL/min/kg.

Q: What about the clearance [11] of the same molecule?
A: The clearance was 31.7 mL/min/kg.

Q: What about the CL free [12] of the same molecule?
A: Its CL free is 317 mL/min/kg.

Q: And the CL free [5]?
A: Its CL free is 300 mL/min/kg.

Q: What about the pEC50 [6] of the same molecule?
A: Its pEC50 is 8.30.

Q: What about the Vd [13] of the same molecule?
A: The Vd was 3.2 L/kg.

Q: Which half-life [9] does the source give for `COc1ccc(S(=O)(=O)c2cc(C(N)=O)c(NC(=O)C(C)(C)O)s2)cc1` here?
A: Its half-life is 15.5 h.

Q: What about the CL free [10] of the same molecule?
A: Its CL free is 10 mL/min/kg.

Q: What about the clearance [11] of the same molecule?
A: The clearance was 2.05 mL/min/kg.

Q: And the pEC50 [14]?
A: Its pEC50 is 6.32.

Q: And the bioavailability [15]?
A: Its bioavailability is 46%.

Q: And the Activity [3]?
A: The Activity was 85%.

Q: And the AUC [7]?
A: The AUC was 12400 ng·h/mL.

Q: What about the CLH [16] of the same molecule?
A: The CLH was < 3%.

Q: And the CL free [12]?
A: The CL free was 167 mL/min/kg.

Q: And the CL free [5]?
A: Its CL free is 33 mL/min/kg.

Q: And the pEC50 [6]?
A: The pEC50 was 7.70.

Q: And the Vd [13]?
A: The Vd was 2.7 L/kg.

Q: With `Nc1cc(S(=O)(=O)c2ccc(C(F)(F)F)cc2)cnc1C(=O)N1CCC[C@H]1CO` as the molecule, how does the pEC50 [6] read?
A: The pEC50 was < 5.70.

Q: For `Nc1cc(S(=O)(=O)c2ccc(F)cc2)cnc1C(=O)NC[C@@H](O)C(F)(F)F`, which half-life [9] is on record?
A: The half-life was > 15 h.

Q: What about the CL free [10] of the same molecule?
A: The CL free was 17 mL/min/kg.

Q: What about the clearance [11] of the same molecule?
A: Its clearance is 2.17 mL/min/kg.

Q: What about the CL free [12] of the same molecule?
A: The CL free was 26.8 mL/min/kg.

Q: And the CL free [5]?
A: The CL free was 26.7 mL/min/kg.

Q: And the pEC50 [6]?
A: The pEC50 was 8.11.

Q: What about the Vd [13] of the same molecule?
A: Its Vd is 2.9 L/kg.

Q: Which Activity [3] does the source give for `CC(C)(C)c1cc(C(C)(C)C)c(NC(=O)c2c[nH]c3ccccc3c2=O)cc1O` here?
A: The Activity was 53%.

Q: For `CC(C)(C)C(=O)Nc1sc(S(=O)(=O)c2ccc(F)cc2)cc1C(N)=O`, which CL free [5] is on record?
A: Its CL free is 105 mL/min/kg.

Q: And the pEC50 [6]?
A: The pEC50 was 6.45.

Q: Which results are given for `C[C@H](O)CNC(=O)c1ncc(S(=O)(=O)c2ccc(OC(F)(F)F)cc2)cc1N`?
A: solubility kinetic [17]: 37 µM (≈ 15.5 µg/mL); clearance [18]: 0.667 mL/min/kg; half-life [19]: 16 h; half-life [9]: 8.9 h; CL free [10]: 20 mL/min/kg; pEC50 [20]: < 4.52; clearance [11]: 1.33 mL/min/kg; Vd [21]: 0.8 L/kg; pEC50 [22]: 7.74; CL free [23]: 28.3 mL/min/kg; CL free [24]: 33 mL/min/kg; Activity [25]: 12%; pEC50 [26]: < 4.48; pEC50 [27]: < 4.00; bioavailability [28]: 93%; CL free [29]: 18.3 mL/min/kg; half-life [30]: 15 h; F [31]: 100%; clearance [32]: 2.33 mL/min/kg; CL free [12]: 45 mL/min/kg; Activity [33]: Non-Toxic; pEC50 [34]: 4.59; CL free [5]: 41.7 mL/min/kg; pEC50 [35]: < 4.00; pEC50 [6]: 7.96; CL free [36]: 21.7 mL/min/kg; Vd [37]: 2.7 L/kg; pEC50 [38]: < 4.00; solubility thermodynamic [39]: 83 µM (≈ 34.8 µg/mL); Vd [13]: 1.1 L/kg
